Experimental data taken from patent publication US20100105657A1, “Compounds, Process for their Preparation, Intermediates, Pharmaceutical Compositions and their use in the Treatment of 5-HT6 Mediated Disorders such as Alzheimer's Disease, Cognitive Disorders, Cognitive Impairment Associated with Schizophrenia, Obesity and Parkinson's Disease” (AstraZeneca AB, priority 2005, published 2010).

Biological target: T1, Rat Striatal 5-HT6 Receptors (Rattus norvegicus, UniProt P31388)
T1 construct: Striatal tissue from adult rats (Sprague-Dawley, 320-370 g, B & K Sweden) were dissected out, weighed and homogenized; from tissue; host or cells: rat striatum (Sprague-Dawley) membranes
Experiment: [125I]SB258585 binding to rat striatal 5-HT6 receptors
Conditions: competition with [125I]SB258585, rat striatal membranes
Method: Method for [125I]SB258585 Binding to Rat Striatal 5-HT6 Receptors
[^125I]SB258585 (1) with specific radioactivity 2000 Ci/mmol was purchased from Amersham Biosciences Europe GmbH, Freiburg, Germany. Other chemicals were purchased from commercial sources and were of analytical grade.
Striatal tissue from adult rats (Sprague-Dawley, 320-370 g, B & K Sweden) were dissected out, weighed and homogenized in buffer containing 50 mM Tris-HCl, 4 mM MgCl2, 1 mM EDTA, 10 μM pargyline and protease inhibitor (Complete, Roche Diagnostics) pH 7.4 using an Ultra-Turrax T8 (IKA Labortechnik, Germany). The tissue homogenate was centrifuged at 48 000×g for 10 min and the pellet was resuspended and recentrifuged as above. […]
Saturation binding studies were carried out in duplicate with 1-3 mg w.w. per tube in 0.5 ml buffer (50 mM Tris, 4 mM MgCl2, 100 mM NaCl, 1 mM EDTA, 5 mM ascorbate and 10 μM pargyline at pH 7.4), 0.2 nM [^125I]SB258585 and unlabelled SB258585 to give a final concentration range of 0.23-20 nM (12 conc.). Non-specific binding was determined in the presence of 10 μM methiothepin. […] The radioactivity was determined in a Packard Tri-Carb 2900TR liquid scintillation counter. Data were analyzed by non-linear regression analyses using PRISM 4.00 (GraphPad Software Inc., San Diego, Calif.). […]

T1 sequence (P31388 whole entry): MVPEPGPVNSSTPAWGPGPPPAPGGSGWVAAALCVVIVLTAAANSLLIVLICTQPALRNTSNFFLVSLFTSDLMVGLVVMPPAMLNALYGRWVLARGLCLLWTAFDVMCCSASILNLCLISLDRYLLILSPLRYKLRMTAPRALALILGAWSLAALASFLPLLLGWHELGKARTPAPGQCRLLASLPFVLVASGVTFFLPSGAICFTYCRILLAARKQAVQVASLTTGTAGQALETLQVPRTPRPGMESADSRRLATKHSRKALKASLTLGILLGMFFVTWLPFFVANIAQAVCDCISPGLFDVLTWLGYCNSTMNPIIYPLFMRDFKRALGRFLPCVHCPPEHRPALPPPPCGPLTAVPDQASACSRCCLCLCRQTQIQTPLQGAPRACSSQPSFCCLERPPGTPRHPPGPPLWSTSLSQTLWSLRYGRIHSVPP

Row | Ki [nM] | Structure (SMILES)
1 | 31 ± 9 | CN1CCOc2ccc(NS(=O)(=O)c3cccc(Cl)c3Cl)cc2C1 [Example 6, 2,3-dichloro-N-(4-methyl-2,3,4,5-tetrahydro-1,4-benzoxazepin-7-yl)benzenesulfonamide]
2 | 32 ± 14 | O=S(=O)(Nc1ccc2c(c1)CNCCC2)c1csc(C(F)(F)F)c1-c1ccccc1 [Example 39, 4-phenyl-N-(2,3,4,5-tetrahydro-1H-2-benzazepin-8-yl)-5-(trifluoromethyl)thiophene-3-sulfonamide]
